Source: patent US12673927B2, “Substituted aminothiazoles as DGKzeta inhibitors for immune activation” (Deutsches Krebsforschungszentrum, priority 2020, dated 2026)

Molecular target: T1, human DGKζ (Homo sapiens, UniProt Q13574)
T1 construct: made in house; host or cells: Sf9 insect cells, baculovirus
Assay: Human DGKζ kinase activity inhibition assay (ADP-Glo)
Format: biochemical
Conditions: intermediates (lacking the R2 side chain; comparative); highest test concentration 20 μM; read-out: IC50 values of intermediates in in vitro human DGKζ kinase activity inhibition assays
Protocol: Human DGKζ Kinase Activity Inhibition Assay
Human diacylglycerol kinase zeta (DGKζ) inhibitory activity of compounds of the present invention was quantified employing the human DGKζ kinase activity assay as described in the following paragraphs. In essence, the enzyme activity was measured by quantification of the adenosine-di-phosphate (ADP) generated as a co-product of the enzyme reaction via the “ADP-Glo™ Kinase Assay” kit from the company Promega. This detection system works as follows: In a first step the adenosine-tri-phosphate (ATP) not consumed in the kinase reaction is quantitatively converted to cyclic adenosine-mono-phosphate (cAMP) employing an adenylate cyclase (“ADP-Glo-reagent”), then the adenylate cyclase is stopped and the ADP generated in the kinase reaction is converted to ATP, which subsequently generates in a luciferase-based reaction a glow-luminescence signal (“Kinase Detection Reagent”).
C-terminally FLAG-tagged, recombinant full-length human DGKζ (inhouse expressed in baculovirus infected insect cells, purified using anti-Flag pulldown and size exclusion chromatography) was used as enzyme. As an alternative, commercially available enzyme by Carnabio can be used. As substrate for the kinase, 1,2-dioleoyl-sn-glycerol, reconstituted in octyl-β-D-glucopyranoside micelles, was used. […] Subsequently, 22.55 volumes of a 510 mM solution of octyl-β-D-glucopyranoside (Sigma-Aldrich, Cat. #08001-10G) in 50 mM MOPS buffer (pH 7.4) were added, and the mixture was sonicated in an ultrasonic bath for 20 s. Then 35 volumes of 50 mM MOPS buffer (pH 7.4) were added to yield a solution of 0.28 mM 1,2 dioleoyl-sn-glycerol and 200 mM octyl-β-D-glucopyranoside, which was aliquoted, flash-frozen in liquid nitrogen, and stored at −20° C. until use.
For the assay 50 nl of a 100-fold concentrated solution of the test compound in dimethyl sulfoxide (DMSO, Sigma) was pipetted into either a white 1536-well or a white low-volume 384-well microtiter plate (both Greiner Bio-One, Frickenhausen, Germany). […] The concentration of DGKζ was adjusted depending of the activity of the enzyme lot and was chosen appropriate to have the assay in the linear range, a typical concentration is about 0.1 nM. The reaction was stopped by the addition of 2.5 μL of “ADP-Glo-reagent” (1 to 1.5 diluted with water) and the resulting mixture was incubated at 22° C. for 1 h to convert the ATP not consumed in the kinase reaction completely to cAMP. Subsequently 2.5 μl of the “kinase detection reagent” (1.2 fold more concentrated than recommended by the producer) were added, the resulting mixture was incubated at 22° C. for 1 h and then the luminescence measured with a suitable measurement instrument (e.g. Viewlux™ from Perkin-Elmer). The amount of emitted light was taken as a measure for the amount of ADP generated and thereby for the activity of the DGKζ.
The data were normalised (enzyme reaction without inhibitor=0% inhibition, all other assay components but no enzyme=100% inhibition).

T1 sequence (Q13574 with tags, fused parts or gaps): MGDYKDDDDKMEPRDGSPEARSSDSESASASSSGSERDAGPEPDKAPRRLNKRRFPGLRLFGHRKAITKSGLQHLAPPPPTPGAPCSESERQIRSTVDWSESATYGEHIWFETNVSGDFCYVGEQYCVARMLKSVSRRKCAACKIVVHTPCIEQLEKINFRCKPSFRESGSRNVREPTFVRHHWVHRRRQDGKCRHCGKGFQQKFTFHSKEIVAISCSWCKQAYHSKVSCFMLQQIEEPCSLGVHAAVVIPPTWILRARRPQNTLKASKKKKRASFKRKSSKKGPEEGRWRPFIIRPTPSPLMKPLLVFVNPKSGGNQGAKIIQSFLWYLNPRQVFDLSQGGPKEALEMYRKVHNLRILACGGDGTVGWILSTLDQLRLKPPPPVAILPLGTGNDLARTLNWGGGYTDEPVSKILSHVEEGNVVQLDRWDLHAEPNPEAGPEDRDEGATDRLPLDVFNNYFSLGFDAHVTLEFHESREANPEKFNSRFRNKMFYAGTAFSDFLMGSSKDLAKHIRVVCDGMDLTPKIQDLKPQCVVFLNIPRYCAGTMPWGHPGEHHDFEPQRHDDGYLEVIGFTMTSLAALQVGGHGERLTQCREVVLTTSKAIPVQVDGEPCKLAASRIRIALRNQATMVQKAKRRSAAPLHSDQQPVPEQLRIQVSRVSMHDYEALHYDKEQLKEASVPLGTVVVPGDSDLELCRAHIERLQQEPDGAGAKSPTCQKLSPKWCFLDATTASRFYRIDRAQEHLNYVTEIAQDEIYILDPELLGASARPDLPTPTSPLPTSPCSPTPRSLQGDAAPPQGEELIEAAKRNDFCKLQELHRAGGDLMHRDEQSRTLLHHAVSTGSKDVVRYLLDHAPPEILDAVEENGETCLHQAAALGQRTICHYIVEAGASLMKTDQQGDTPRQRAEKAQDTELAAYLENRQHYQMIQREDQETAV

Row | IC50 [nM] | Compound
1 | > 20000 | Cc1ccc(C(=O)c2sc(Nc3ccc(F)cc3)nc2N)cc1 [Example 64]
2 | > 20000 | Nc1nc(Nc2ccc(F)cc2F)sc1C(=O)c1ccccc1 [Example 66]
3 | > 20000 | Nc1nc(Nc2ccc(F)cc2)sc1C(=O)c1ccccc1 [Example 62]

Same assay, conditions: recombinant full-length human DGKζ, 55 μM ATP, 7 μM 1,2-dioleoyl-sn-glycerol, 20 min at 22° C.; read-out: IC50 in vitro human DGKζ kinase activity inhibition assay

Row | IC50 [nM] | Compound
4 | 5 | CC(C(N)=O)N(c1ccc(F)c(F)c1)c1nc(N)c(C(=O)c2ccc(OC(F)F)nc2)s1 (single isomer, unassigned) [Example 163.1, 2-(N-[4-amino-5-[6-(difluoromethoxy)pyridine-3-carbonyl]thiazol-2-yl]-3,4-difluoro-anilino)propanamide]
5 | 985 | Cc1ccc(C(=O)c2sc(N(CC(N)=O)c3ccc(F)cc3)nc2N)cc1 (racemic) [Example 72]
6 | 1030 | CC(C(N)=O)N(c1ccc(F)c(F)c1)c1nc(N)c(C(=O)c2ccc(OC(F)F)cc2)s1 (single isomer, unassigned) [Example 49.1, 2-(N-[4-amino-5-[4-(difluoromethoxy)benzoyl]thiazol-2-yl]-3,4-difluoro-anilino)propanamide]
7 | 3 | CC(C(N)=O)N(c1ccc(F)c(F)c1)c1nc(N)c(C(=O)c2ccc(NC(=O)OCc3ccccc3)cc2)s1 (single isomer, unassigned) [Example 167.1, Benzyl N-[4-[4-amino-2-(N-(2-amino-1-methyl-2-oxo-ethyl)-3,4-difluoro-anilino)thiazole-5-carbonyl]phenyl]carbamate]
8 | 7640 | CC(C(N)=O)N(c1ccc(Cl)c(F)c1)c1nc(N)c(C(=O)c2ccncc2)s1 (single isomer, unassigned) [Example 56.2, 2-(N-[4-amino-5-(pyridine-4-carbonyl)thiazol-2-yl]-4-chloro-3-fluoro-anilino)propanamide]
9 | 2.66 | CC(C(N)=O)N(c1ccc(F)cc1)c1nc(N)c(C(=O)c2ccc(OCC(=O)Nc3ccc(Cl)cc3)cc2)s1 (single isomer, unassigned) [Example 145, 2-(N-[4-amino-5-[4-[2-(4-chloroanilino)-2-oxo-ethoxy]benzoyl]thiazol-2-yl]-4-fluoro-anilino)propanamide]
